Consider 1 substance from patent publication US20020146679A1, “Method for creating endothelial cell dysfunction in cell culture” (priority 2001, published 2002).

“Also recorded” adds a separate entry of the source.

Test [1] has as its system EA hy926 endothelial cells. Nature of the test: Tube formation assay on MATRIGEL (in vitro angiogenesis). As to conditions: TNFα exposure greater than 3 days (up to 6 days) in 5% FBS, then plated on matrigel. In kind it is cell-based, human. Here is the method: According to an aspect of the invention, EA hy926 (EA) cells are initially grown in standard endothelial cell culture medium consisting of MCDB 131 (Clonetics Corp.) supplemented with 10 fetal bovine serum (FBS) (Hyclone laboratories), 100 U/mL penicillin/streptomycin, 50 μg/mL gentamicin, and other endothelial growth supplements (EGM bullet kit, Clonetics Corp.). […] Cells were grown in these conditions for 6 to 7 days. EA cells are then dispersed by trypsinization, counted, suspended in EGM media containing […], and plated onto the surface of a MATRIGEL® basement membrane protein matrix (0.5 mL/well, dispensed into 24-well tissue culture plates according to the manufacturer's instructions) at a density of 5×10^5 cells per well (24 well plate). The cells were then placed in a CO2 incubator at 37° C. and observed over a 16- to 24-hour period for cell differentiation into tube-like structures resembling capillaries. […]
EBM medium and its supplement were purchased from Clonetics. […] EA cells were then dispersed by trypsinization, counted, suspended in EGM media containing 10% FBS, and plated onto the surface of a MATRIGEL® basement membrane matrix (0.5 mL/well, dispensed into 24-well tissue culture plates according to the manufacturer's instructions) at a density of 5×10^5 cells per well (24-well plate). […]

For test [2], the system named is EA hy926 cells. Nature of the test: Western blotting analysis of endothelial marker proteins. In kind it is cell-based, human. As to conditions: 6-day (chronic) TNFα treatment, 5% FBS. The procedure:
The whole cell lysates were generated by suspending cell pellets with protein lysis buffer containing 10 mM Tris.CI (pH 7.6), 1 mM EDTA (pH 8.0), 100 mM NaCI, 1 μg/mL aprotinin, and 100 μg/mL phenylmethylsulfonyl fluoride. The lysates were sonicated for 15 seconds at output control level 4 with Sonifier 450 model manufactured by VWR Scientific products. Fifty microgram lysates protein for each sample was electrophoretically separated in 8% to 16% Tris-Glycine Gel and transferred to a nitrocellulose membrane. The proteins on the membrane were stained with PONCEAS solution to check if the proteins loading and transfer were even. The membranes were separately incubated with 5% dry milk Phosphate-buffered saline (PBS) at room temperature for 2 hours and followed by overnight incubation at 4° C. with fresh 5% dry milk PBS containing primary antibodies at 1:2000 dilution. The peroxidase conjugated secondary antibodies was diluted at 1:4000 dilution with 5% PBS buffer. The incubation with secondary antibody was carried out at room temperature for 1 hour. The membranes were then subject to staining with ECL solution and exposure to films.

As to TNFα, the serum-stimulated tube formation entry in test [1] is “cells no longer form tubes; also recorded: fail to form tubes”. Further, in test [2], the CD31 protein expression result is “increased”, the PAI-1 protein expression entry was “increased”, the VCAM-1 protein expression entry is “increased” and the caveolin-1 protein expression entry is on record as “increased”. The ecNOS protein expression entry in test [2] was “markedly decreased”.
